How the values were obtained:
Aspirin-induced ulcer = assay: Aspirin-induced ulcer; assay type: in vivo; conditions: Rattus norvegicus; rats, 100 mg/kg intraduodenally, aspirin 100 mg/kg orally, 7 hours, length of erosion; read-out: Rate of inhibition, Aspirin-ulcer (%)
Description: One group of 10 rats of body weight of from 2x10^-1 to 2.5x10^-1 kg (200 to 250 g) was subjected to laparotomy under ether-anaesthesia, after 24 hour-fasting with ad lib. taking water, to have ligature of their pylorus (according to Okabe et al., 1974). Just after the ligature, an aqueous suspension of one of the compounds of the invention in a 1% CMC solution was intraduodenally administered to the rats at a dose of 10^-4 kg/kg (100 mg/kg). After closing the abdomen, an aqueous dispersion of aspirin in a 1% CMC solution was orally administered at a dose of 10^-4 kg/kg (100 mg/kg). After 7 hours of the aspirin administration, the stomach was extirpated under ether-anaesthesia, and the length (in 10^-3m (mm)) of erosions generated on the mucosa of the glandular stomach region was measured. The sum of the length of erosion on rats of one group was represented by the ulcer coefficient. The same procedures were carried out on another group of 10 rats of the same strain (a control group) except that an aqueous 1% CMC solution was administered instead of the aqueous dispersion of one of the compounds of the present invention. The rate of inhibition of the occurrence of ulcers was obtained by calculation as in 1-2), the results being also shown in Table 1.
(§1) Note: ^* The structure of the compounds of the invention is expressed by the formula: [drawing 8] **The structure of the reference compound is expressed by the formula: [drawing 9] **Experiments were carried out on rats and the rate of inhibition was obtained at a dose of 10^-4 kg/kg (100 mg/kg) orally or intraduodenally.

gastric secretion = assay: Effects on gastric secretion (pylorus-ligated rats); assay type: in vivo; conditions: Rattus norvegicus, intraduodenal, 100 mg/kg intraduodenally, pylorus ligature, gastric juice collected after 7 hours, read-out: Rate of inhibition, Gastric secretion (%)
Description: One group of 10 rats of body weight of from 1.5x10^-1 to 1.8x10^-1 kg (150 to 180g) was subjected to ligature of the pylorus after 24-hours fasting, under ether-anaesthesia, and one of the compounds of the present invention or the reference compound was administered as a dispersion in an aqueous 1% CMC solution into the duodenum. Only an aqueous 1% CMC solution was administered into the duodenum of a control group of 10 rats. After 7 hours from closing the abdomen, the stomach was extirpated under ether-anaesthesia to collect the gastric juice that had accumulated in it. The inhibiting effect of each drug on gastric secretion was calculated by the following formula: [formula] wherein Amount of gastric juice of control group = A ml Amount of gastric juice of test group = B ml The results are also shown in Table 1.
as §1

Stress ulcer = Stress ulcer (restriction in water); assay type: in vivo; conditions: Rattus norvegicus, po; rats, 100 mg/kg orally, immersed in water at 23°C for 20 hours, length of erosion; read-out: Rate of inhibition, Stress ulcer (%)
Description: One group of 10 rats of body weight of from 2x10^-1 to 2.5x10^-1kg (200 to 250 g) after oral administration of an aqueous suspension of the compound of the invention being tested in a 1% CMC solution at a dose of 10^-4 kg/kg (100 mg/kg) were kept in stress cages and immersed in water at a temperature of 23°C to the depth of their thorax for 20 hours to give a stress of restriction in water. Another group of 10 rats of the same strain (a control group) were also treated with the same stress, but after administration of an aqueous 1% CMC solution.
Just after removing the rats from the water, they were clubbed to death and their stomachs were extirpated. Then, about 1.5x10^-5m^3 (15 ml) of an aqueous 1% formaldehyde solution was injected into each stomach. After maintaining the formaldehyde solution in the stomachs for 10 minutes to enable the solution to contact to the inner stomach wall, each stomach was cut open along the greater curvature to examine the length of erosion (in 10" m (mm)) generated on the mucosa of the glandular stomach region under an anatomical microscope. The sum of the length of erosion for rats of one group was represented by the ulcer coefficient. The rate of inhibition of the occurrence of the ulcer by each compound was obtained by the same method as in 1-1), the results being shown also in Table 1.
as §1

Shay's ulcer = assay: Shay's ulcer; assay type: in vivo; conditions: Rattus norvegicus, intraduodenal; rats, 100 mg/kg intraduodenally, pylorus ligature, 18 hours, ulcer area of forestomach; read-out: Rate of inhibition, Shay's ulcer (%)
Description: Two groups of rats of body weight of from 2x10^-1 to 2.5x10^-1 kg (200 to 250 g), each group consisting of 10 animals, were treated under ether-anaesthesia by ligature of the pylorus after 48 hour-fasting (during which water was taken ad lib.) and, just after the operation, an aqueous suspension of one of the compounds of the invention in a 1% solution of carboxymethylcellulose (hereinafter referred to as CMC) was administered intraduodenally to the rats in one group at a dose of 10^-4 kg/kg (100 mg/kg). The other group (control) was given an aqueous 1% solution of CMC intraduodenally. After keeping these animals for 18 hours without giving them any food and water, their stomachs were extirpated under ether anaesthesia and the area (m^2x10^-6) (mm ) of the ulcer generated on the forestomach part of the rats was determined under an anatomical microscope. The total area of the ulcers of one group was represented by an ulcer coefficient. The rate of inhibition of the occurrence of ulcers (%) was obtained by calculation according to the following formula: Rate of inhibition of the occurrence of ulcers (%)= 100 x (Ulcer coeff. of control qp) - (Ulcer coeff. of test qp) (ulcer coeff.of control gp)
as §1

[1] = Acute oral toxicity (LD50 p.o.); conditions: rat, in vivo, rats, read-out: Acute oral toxicity (LD50,kgx10^-6/kg)

Which results are given for `CN=C(NC#N)NCCCCn1nc(-c2ccccc2)cc(C)c1=O` [Compound No. 81, N-cyano-N'-[4-(4-methyl-3-oxo-6-phenyl-2-pyridazinyl)butyl]-N"- methylguanidine]?
inhibition in vivo at 100 mg/kg (Aspirin-induced ulcer): 90.8%; inhibition in vivo at 100 mg/kg (gastric secretion): 54.2%; inhibition in vivo at 100 mg/kg (Stress ulcer): 63.4%; inhibition in vivo at 100 mg/kg (Shay's ulcer): 72.4%; LD50 [1]: > 5000 mg/kg

What does the source list for `CN=C(NC#N)NCCCCn1nc(-c2ccccc2)ccc1=O` [Compound No. 44, N-cyano-N'-[4-(3-oxo-6-phenyl-2-pyridazinyl)butyl]-N"-methylguanidine]?
inhibition in vivo at 100 mg/kg (Aspirin-induced ulcer): 97.5%; inhibition in vivo at 100 mg/kg (gastric secretion): 77.6%; inhibition in vivo at 100 mg/kg (Stress ulcer): 71.2%; inhibition in vivo at 100 mg/kg (Shay's ulcer): 97.8%; LD50 [1]: > 5000 mg/kg

For `CCN=C(NC#N)NCCCn1nc(-c2ccccc2)ccc1=O` [Compound No. 48, N-cyano-N'-[3-(3-oxo-6-phenyl-2-pyridazinyl)propyl]-N"-ethylguanidine], which inhibition in vivo at 100 mg/kg (Aspirin-induced ulcer) is on record?
Its inhibition in vivo at 100 mg/kg is 93.8%.

What about the inhibition in vivo at 100 mg/kg (gastric secretion) of the same compound?
Its inhibition in vivo at 100 mg/kg is 51.9%.

And the inhibition in vivo at 100 mg/kg (Stress ulcer)?
The inhibition in vivo at 100 mg/kg was 70.5%.

And the inhibition in vivo at 100 mg/kg (Shay's ulcer)?
Its inhibition in vivo at 100 mg/kg is 76.4%.

What about the LD50 [1] of the same compound?
The LD50 was over 5000 mg/kg.

Which results are given for `CN=C(NC#N)NCCSCn1nc(-c2ccccc2)ccc1=O` [Compound No. 138, N-cyano-N'-[2-{(3-oxo-6-phenyl-2-pyridazinyl)methylthio}ethyl]-N"-methylguanidine]?
inhibition in vivo at 100 mg/kg (Aspirin-induced ulcer): 90.2%; inhibition in vivo at 100 mg/kg (gastric secretion): 70.2%; inhibition in vivo at 100 mg/kg (Stress ulcer): 68.2%; inhibition in vivo at 100 mg/kg (Shay's ulcer): 88.3%; LD50 [1]: 4800 mg/kg

With `CN=C(NC#N)NCCCCn1nc(-c2ccc(Cl)cc2)ccc1=O` [Compound No. 59, N-cyano-N'-[4-{6-(4-chlorophenyl)-3-oxo-2-pyridazinyl}butyl]-N"- methylguanidine] as the compound, how does the inhibition in vivo at 100 mg/kg (Aspirin-induced ulcer) read?
Its inhibition in vivo at 100 mg/kg is 89.5%.

What about the inhibition in vivo at 100 mg/kg (gastric secretion) of the same compound?
The inhibition in vivo at 100 mg/kg was 63.1%.

What about the inhibition in vivo at 100 mg/kg (Stress ulcer) of the same compound?
Its inhibition in vivo at 100 mg/kg is 72.1%.

What about the inhibition in vivo at 100 mg/kg (Shay's ulcer) of the same compound?
Its inhibition in vivo at 100 mg/kg is 61.5%.

What about the LD50 [1] of the same compound?
Its LD50 is 4800 mg/kg.

With `CN=C(NC#N)NCCCCn1nc(-c2ccc(C)cc2)ccc1=O` [Compound No. 65, N-cyano-N'-[4-{6-(4-methylphenyl)-3-oxo-2-pyridazinyl}butyl]-N"- methylguanidine] as the compound, how does the inhibition in vivo at 100 mg/kg (Aspirin-induced ulcer) read?
The inhibition in vivo at 100 mg/kg was 91.4%.

And the inhibition in vivo at 100 mg/kg (gastric secretion)?
The inhibition in vivo at 100 mg/kg was 58.5%.

And the inhibition in vivo at 100 mg/kg (Stress ulcer)?
The inhibition in vivo at 100 mg/kg was 70.5%.

And the inhibition in vivo at 100 mg/kg (Shay's ulcer)?
The inhibition in vivo at 100 mg/kg was 70.3%.

What about the LD50 [1] of the same compound?
The LD50 was over 5000 mg/kg.

What does the source list for `CCN=C(NC#N)NCCCCn1nc(-c2ccccc2)ccc1=O` [Compound No. 50, N-cyano-N'-[4-(3-oxo-6-phenyl-2-pyridazinyl)butyl]-N"-ethylguanidine]?
inhibition in vivo at 100 mg/kg (Aspirin-induced ulcer): 86.2%; inhibition in vivo at 100 mg/kg (gastric secretion): 59.2%; inhibition in vivo at 100 mg/kg (Stress ulcer): 77.2%; inhibition in vivo at 100 mg/kg (Shay's ulcer): 73.4%; LD50 [1]: > 5000 mg/kg

For `CCN=C(NC#N)NCCCCCn1nc(-c2ccccc2)ccc1=O` [Compound No. 53, N-cyano-N'-[5-(3-oxo-6-phenyl-2-pyridazinyl)pentyl]-N"-ethylguanidine], which inhibition in vivo at 100 mg/kg (Aspirin-induced ulcer) is on record?
Its inhibition in vivo at 100 mg/kg is 90.6%.

What about the inhibition in vivo at 100 mg/kg (gastric secretion) of the same compound?
Its inhibition in vivo at 100 mg/kg is 68.5%.

What about the inhibition in vivo at 100 mg/kg (Stress ulcer) of the same compound?
The inhibition in vivo at 100 mg/kg was 79%.

What about the inhibition in vivo at 100 mg/kg (Shay's ulcer) of the same compound?
Its inhibition in vivo at 100 mg/kg is 93.2%.

What about the LD50 [1] of the same compound?
The LD50 was over 5000 mg/kg.

From patent EP0030835A1, “Derivatives of 2-substituted-6-phenyl-3(2H)pyridazinone, their production and pharmaceutical compositions containing them” (MORISHITA PHARMACEUTICAL CO. LTD., priority 1979, dated 1981)
